The record followed here is PubChem BioAssay (NCI).

“And” between values parts separate entries of the source, which are not always exact repeats. Identical values can stand only once.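 Briefly, cells in 96-well plates were exposed to five compound concentrations for 48 h, and endpoints were estimated by linear interpolation. GI50 marks 50% less growth. TGI: total growth inhibition.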

Among the test systems are HOP-62 NSCLC; SW-620 colon; DU-145 prostate; COLO 205 colon; SK-MEL-2 melanoma; SNB-75 CNS; NCI-H226 lung; NCI-H23 lung; 786-0 renal; OVCAR-3 ovarian.
Assay in all cases: DTP human tumour cell line panel, 48 h

One may read the GI50 as the concentration giving 50% growth inhibition. For orientation: TGI means the concentration giving total growth inhibition. Read a high TGI as lower sensitivity of the cells. `O=c1cc(-c2ccccc2F)[nH]c2ccc(N3CCCC3)cc12`: the GI50 is less than 0.001 µM in the experiment on HOP-62 NSCLC; less than 0.001 µM in the experiment on DU-145 prostate; less than 0.001 µM in the experiment on COLO 205 colon; less than 0.001 µM in the experiment with NCI-H226 lung; 0.199 µM with NCI-H23 lung; less than 0.001 µM in the experiment on 786-0 renal. For the same compound, the TGI is more than 100 µM in the experiment on HOP-62 NSCLC; more than 100 µM with SW-620 colon; more than 100 µM in the experiment on SK-MEL-2 melanoma; more than 100 µM with SNB-75 CNS; 0.0215 µM with NCI-H226 lung; more than 100 µM with 786-0 renal.
In the case of `NC(=O)c1ccccc1Nc1ccc2nnc(-c3ccncc3)n2n1`, the GI50 in the experiment with OVCAR-3 ovarian was 13.7 µM; in the experiment on HOP-62 NSCLC, 9.93 µM; in the experiment on SW-620 colon, 5.6 µM; with DU-145 prostate, 14.3 µM; with COLO 205 colon, 11.6 µM; with SNB-75 CNS it was 13.6 µM. For the same compound, the GI50 in the experiment with NCI-H226 lung was 15 µM; in the experiment with NCI-H23 lung, 15 µM; with 786-0 renal, 10.8 µM. The TGI is 26.6 µM with OVCAR-3 ovarian; 22.4 µM in the experiment with HOP-62 NSCLC; 19.1 µM in the experiment on SW-620 colon; 27.3 µM in the experiment on DU-145 prostate; 26.7 µM with COLO 205 colon; 26.5 µM with SNB-75 CNS. The TGI with NCI-H226 lung was determined as 44.4 µM; with NCI-H23 lung, 40.4 µM; in the experiment with 786-0 renal, 23.1 µM.
Take `CCOC(=O)c1c2c(n(Cc3ccc(Cl)cc3Cl)c1C)-c1nc[nH]c1C(=O)C2=O`: the GI50 in the experiment on OVCAR-3 ovarian was 2.86 µM; with HOP-62 NSCLC, 16.4 µM; in the experiment on SW-620 colon, 6.19 µM; with DU-145 prostate, 11.8 µM; with COLO 205 colon it was 17.4 µM; in the experiment on SK-MEL-2 melanoma, 19.5 µM. The GI50 in the experiment on SNB-75 CNS was 1.99 µM; with NCI-H226 lung, 14.2 µM; in the experiment with 786-0 renal it was 3.37 µM. In addition, the concentration for total growth inhibition (TGI) in the experiment on OVCAR-3 ovarian came to 10.6 µM; in the experiment with HOP-62 NSCLC it was 32.6 µM; in the experiment on SW-620 colon, 18.2 µM; in the experiment with DU-145 prostate, 24.1 µM; in the experiment with COLO 205 colon, 32.1 µM; with SK-MEL-2 melanoma it was 41.2 µM. In addition, the TGI in the experiment on SNB-75 CNS amounted to 9.62 µM; with NCI-H226 lung, 31.5 µM; in the experiment on 786-0 renal it was 11.3 µM.
With `O=C1C(N2CC2)=C(N2CC2)C(=O)C(N2CC2)=C1N1CC1`, the GI50 in the experiment with OVCAR-3 ovarian was 1.04 µM; with HOP-62 NSCLC it was 0.0822 µM; in the experiment on SW-620 colon, 0.419 µM; with COLO 205 colon it was 0.163 µM; in the experiment with SNB-75 CNS, 0.158 µM; in the experiment with NCI-H226 lung, 0.157 µM. Moreover, the 50% growth inhibitory concentration (GI50) was less than 0.0233 µM in the experiment with NCI-H23 lung and less than 0.0285 µM in the experiment with 786-0 renal. For the same compound, the TGI turned out to be 3.46 µM in the experiment with OVCAR-3 ovarian; 1.05 µM in the experiment on HOP-62 NSCLC; 6.09 µM in the experiment with SW-620 colon; 0.487 µM with DU-145 prostate; 0.404 µM in the experiment with COLO 205 colon; 1.11 µM with SNB-75 CNS. Moreover, the TGI in the experiment with NCI-H226 lung stood at 0.714 µM; with NCI-H23 lung, 0.245 µM; in the experiment with 786-0 renal, 0.984 µM.
Turning to `COC1/C=C/C(C)C(C(C)C(OC)C(C)CCC(=O)C(C)C(C/C=C/N(C)C=O)OC)OC(=O)/C=C/C=C(\C)CC(OC)CC2=CC(=O)O[C@H](C2)C(C)C(OC)CC(OC)/C=C/C(C)C(OC)C1` (stereo partly drawn), the GI50 with OVCAR-3 ovarian was 0.0127 µM; in the experiment on HOP-62 NSCLC, 0.0178 µM; with SW-620 colon, 0.0198 µM; in the experiment on DU-145 prostate it was 0.123 µM; in the experiment on COLO 205 colon, 0.0184 µM; in the experiment on NCI-H226 lung, 0.0215 µM. Besides, the GI50 is 0.0919 µM in the experiment with NCI-H23 lung and 0.0155 µM in the experiment with 786-0 renal. Also, the TGI in the experiment on OVCAR-3 ovarian was 0.0307 µM; in the experiment with HOP-62 NSCLC it was 0.0449 µM and 0.0169 µM; with SW-620 colon, 6.95 µM; in the experiment on COLO 205 colon it was 0.131 µM; with SK-MEL-2 melanoma it was 0.0399 µM; in the experiment on NCI-H226 lung, 0.129 µM. The TGI in the experiment on NCI-H23 lung was 0.499 µM and 0.171 µM; in the experiment on 786-0 renal, 0.0356 µM.
Regarding `CC(=O)OC[C@]12CC[C@@H](C(=O)CBr)[C@@H]1[C@H]1CC[C@@H]3[C@@]4(C)CCCNC(C)(C)[C@@H]4CC[C@@]3(C)[C@]1(C)CC2`, the GI50 in the experiment with OVCAR-3 ovarian was 1.93 µM; in the experiment on HOP-62 NSCLC, 14.3 µM; in the experiment with SW-620 colon it was 2.77 µM; in the experiment on DU-145 prostate, 4.1 µM; with COLO 205 colon it was 3.92 µM; with SK-MEL-2 melanoma, 6.03 µM. The GI50 with SNB-75 CNS was 15.4 µM; in the experiment on NCI-H23 lung it was 7.01 µM; with 786-0 renal, 1.65 µM. Also, the TGI in the experiment on OVCAR-3 ovarian is 3.85 µM; in the experiment on HOP-62 NSCLC, 28.2 µM; with SW-620 colon it was 8.06 µM; with DU-145 prostate, 14.2 µM; in the experiment with COLO 205 colon it was 17.2 µM; in the experiment on SK-MEL-2 melanoma, 20.3 µM. The TGI turned out to be 32.8 µM in the experiment on SNB-75 CNS, 23.5 µM in the experiment on NCI-H23 lung and 3.27 µM with 786-0 renal.
With `COc1ccc2c(c1)nnn1c3ncccc3c(N=O)c21`, the GI50 in the experiment with OVCAR-3 ovarian was 1.11 µM and 2.41 µM; with HOP-62 NSCLC, 7.51 µM; in the experiment with SW-620 colon, 0.27 µM and 1.34 µM; with DU-145 prostate, 1.82 µM and 2.38 µM; in the experiment on COLO 205 colon, 0.681 µM and 1.22 µM; with SK-MEL-2 melanoma, 2.18 µM and 4.29 µM. In addition, the GI50 in the experiment on NCI-H226 lung is 4.14 µM and 11.6 µM; in the experiment with NCI-H23 lung, 5.17 µM and 1.84 µM; in the experiment with 786-0 renal, 0.334 µM and 2.38 µM. For the same compound, the TGI is 5.18 µM and 7.68 µM with OVCAR-3 ovarian; 21.5 µM with HOP-62 NSCLC; 13 µM and 8.09 µM in the experiment on DU-145 prostate; 2.74 µM with COLO 205 colon; 10.3 µM and > 100 µM in the experiment on SK-MEL-2 melanoma; 13.1 µM and 47.7 µM in the experiment on NCI-H226 lung. In the experiment on NCI-H23 lung, the TGI is 13.5 µM and 6.43 µM.
In the case of `CCC(C)[C@H]1O[C@]2(C=C[C@@H]1C)C[C@@H]1C[C@@H](C/C=C(\C)[C@@H](OC3C[C@H](OC)C(O[C@H]4C[C@H](OC)[C@@H](O)[C@H](C)O4)[C@H](C)O3)[C@@H](C)/C=C/C=C3\CO[C@@H]4[C@H](O)C(C)=C[C@@H](C(=O)O1)[C@]34O)O2` (stereo partly drawn), the GI50 in the experiment on OVCAR-3 ovarian was 0.904 µM; with HOP-62 NSCLC it was 1.37 µM; in the experiment with DU-145 prostate it was 0.907 µM; in the experiment on COLO 205 colon, 0.86 µM; with SK-MEL-2 melanoma, 1.24 µM; in the experiment on SNB-75 CNS, 2.74 µM. Also, the GI50 is 1.08 µM in the experiment with NCI-H226 lung, 1.23 µM in the experiment on NCI-H23 lung and 0.728 µM with 786-0 renal. The TGI with OVCAR-3 ovarian is 1.66 µM; in the experiment on HOP-62 NSCLC, 6.53 µM; with DU-145 prostate, 1.62 µM; with COLO 205 colon, 1.62 µM; in the experiment on SK-MEL-2 melanoma, 2.6 µM; in the experiment with SNB-75 CNS, 9.09 µM. Besides, the values for the TGI with NCI-H226 lung, with NCI-H23 lung and with 786-0 renal were 3.27 µM, 4.16 µM and 1.56 µM, respectively.
